In patent publication US4084006A, “Method of using dialkylphenols an antiviral agents” (priority 1977, dated 1978):

Tests used:
San Carlos virus = assay: Inhibition of cytopathic activity (CPE) of San Carlos virus in HEL tissue culture; type: cell-based, San Carlos virus (adenovirus); conditions: for CPE with 100 TCID50 doses of San Carlos virus: HEL cells
Method: The anti-viral activity of 2,4-dimethylphenol was studied in the following manner. Tissue cultures derived from human embryonic lung (HEL) were grown and maintained as monolayers in 32 ounce prescription bottles using growth medium consisting of 85% synthetic mixture No. 199 plus 15% unfiltered fetal bovine serum (FBS) adjusted to pH 7.4. Tube cultures of HEL cells were prepared in similar fashion and used in assays for anti-viral activity. During chemotherapy tests, the maintenance medium consisted of synthetic mixture No. 199 with 7.5% FBS. The virus spectrum in tissue culture consisted of two DNA viruses, a San Carlos virus isolated by Davis [see Science 133, 2059, 1961] and later identified as an adenovirus, and the HF strain of herpes simplex virus. In addition, a RNA virus represented by measles was included in the examples.
In performing the initial assays, the tissue cultures were treated prophylactically and the virus was treated in vitro with decreasing 2,4-dimethylphenol concentrations ranging from […] (2 × 10^-6) to 2 attograms (ag) (2 × 10^-18) per ml. The procedure consisted of pretreating tube cultures of HEL cells for two to three days with growth medium containing varying concentrations of 2,4-dimethylphenol. After the prophylactic treatment, the test fluids were removed and replaced with fresh maintenance medium. At this time, 200 TCID50 doses of virus were mixed in vitro with the same decreasing concentrations of the distillate used to pretreat the cells, then the mixture was inoculated into replicate culture of HEL cells so that the final incolum consisted of 100 TCID50 doses of virus in tubes with 2,4-dimethylphenol at the same level used to prophylactically treat the cells.
The same number of infected control tubes were handled in the same way except that 2,4-dimethylphenol was omitted from all media. Culture tubes were rotated at 37° C. and examined daily for a period of 7 days for cytopathic activity (CPE). […] By the same token, the CPE of herpes virus was inhibited by both the 10^-12 and 10^-15 level, possibly indicating two active components. […]

[1] = tested on: chronic respiratory disease (CRD); assay: Treatment of chronic respiratory disease in inbred GM rats; type: in vivo, rat (GM); for Dead animals: tested at 0.001 ppm; for Ill animals: tested at 0.001 ppm; for Well animals: tested at 0.001 ppm; for new born rats, all appeared healthy: tested at 0.001 ppm; for total number of rats in colony: tested at 0.001 ppm
Method: One-half of a colony of spontaneously hypertensive (SH) rats was treated with 2,4-dimethylphenol in their drinking water at a concentration of one part per billion. The other half of this colony was given only tap water, and both groups observed for 76 days. The second experiment was with a highly inbred strain (GM) of rats that were about to expire, because of chronic respiratory infection. […] Both groups, the SH rats and the GM rats, were not breeding because of their infections and were in seriously poor health.
The second experiment was run concurrently with Example 36, but this time the animals were the highly inbred GM strain. A number of these animals were ill with chronic respiratory disease and unable to breed. These rats were randomly divided into two groups of 26 each. The experimental group received 1 PPB of the 2,4-dimethylphenol in their drinking water and the control group received only tap water.

[2] = tested on: pneumonia virus of mice (PVM); assay: Serum PVM titers in rats; type: in vivo, pneumonia virus of mice (host: rat); conditions: for Mycoplasma infected rats that failed to show titers for PVM: sera of 19 infected rats
Excerpt: Attempts were made to test the effect of infecting rats with Mycoplasma pulmonis (ATCC 19612) so that they could transmit the disease to their cage mates and, also allowed them to breed. This was also done to test if the mothers would pass the infection on to their litters. These rats were purchased from a laboratory in Indianapolis, Indiana and they were divided into 6 groups with male animals in each group. In the 5 experimental groups, a total of 15 female rats out of 30, and in the control group 4 female rats out of 8 were infected intranasally with Mycoplasma pulmonis (ATCC 19612). There were two male rats per experimental group and 3 for the controls totaling 13 male rats, and none of these were infected with M. pulmonis.
The experimental groups (8 rats each) and control group were treated as follows:
All rats were fed ad libitum rat chow, and their cages were cleaned 5-6 times weekly. For the 5 experimental groups, the 2,4 DMP was dissolved in distilled water used for their drinking fluid while the control only received distilled water. There were times when the rats spilled excessive amounts of their drinking water and this caused a certain amount of the phenol to be evaporated from these cages, particularly those groups receiving the higher concentrations of the phenol. This way, it was possible for the controls to inhale a small but indefinite amount of the phenol which is volatile. All animals were kept in the same laboratory room.
All the male animals (13) were sacrificed after 14 days, and after impregnating the females. Their blood was collected by heart puncture, and the animals lungs were saved in 10% formalin for pathology. All the female rats (18) that were not infected, except one, intranasally with M. pulmonis were sacrificed 30 days post infection of their cage mates. All the young born to these rats (non-infected), during this time were also sacrificed. The blood and lungs from the adult females were saved for study.
The 19 female rats infected with M. pulmonis and one non-infected female were allowed to raise their litters so that the young could be weaned, and then they were sacrificed 58 days post infection, saving their blood and lungs for study.
When the offsprings from the M. pulmonis infected mothers were 40-50 days old a proportionate number selected at random were sacrificed, saving blood and lungs for study:
The serum of each rat sacrificed was tested for antibodies for Mycoplasma. […] One of these rats was in the group receiving one part per million of the phenol and other was a control. Therefore, it was concluded that the Mycoplasma pulmonis was not the cause of the lung infection in these rats, but there was still enough pathology evident in these lungs to suspect some unknown infection. Consequently, the serum of the control rat showing a low titer for Mycoplasma pulmonis was screened by a commercial laboratory for virus infections commonly associated with rats.
All blood serums saved from these experiments were tested for PVM titers. Sera from eight of the 13 males sacrificed at 14 days had detectable titers. All three of these controls had titers indicating PVM infection leaving 5 treated rats with titers for PVM. In the 18 non-infected female rats that were sacrificed after 30 days two rats were negative for PVM titers, one was in the 1 PPM and the other was in the 1 PPB treated groups.

[3] = day 58, 1 PPB in drinking water, GM rats
[4] = day 66, 1 PPB in drinking water, GM rats
[5] = day 73, 1 PPB in drinking water, GM rats
[6] = day 80, 1 PPB in drinking water, GM rats
[7] = over 2.5 years, 1 PPB in drinking fluid, combined GM groups

## Cc1ccc(O)c(C)c1 [2,4-dimethylphenol]
San Carlos virus; 2,4-dimethylphenol 10^-4 grams 2X
  CPE with 100 TCID50 doses of San Carlos virus: 4+ (100% of cells infected with selected virus)
San Carlos virus; 10^-5 grams 2X
  CPE with 100 TCID50 doses of San Carlos virus: 2+ (50% of cells infected with selected virus)
San Carlos virus; 10^-6 grams 2X
  CPE with 100 TCID50 doses of San Carlos virus: 2+ (50% of cells infected with selected virus)
San Carlos virus; 10^-7 grams 2X
  CPE with 100 TCID50 doses of San Carlos virus: 1+ (25% of cells infected with selected virus)
San Carlos virus; 10^-8 grams 2X
  CPE with 100 TCID50 doses of San Carlos virus: 1+ (25% of cells infected with selected virus)
San Carlos virus; 10^-9 grams 2X
  CPE with 100 TCID50 doses of San Carlos virus: 1+ (25% of cells infected with selected virus)
San Carlos virus; 10^-10 grams 2X
  CPE with 100 TCID50 doses of San Carlos virus: 1+ (25% of cells infected with selected virus)
San Carlos virus; 10^-11 grams 2X
  CPE with 100 TCID50 doses of San Carlos virus: 1+ (25% of cells infected with selected virus)
San Carlos virus; 10^-12 grams 2X
  CPE with 100 TCID50 doses of San Carlos virus: 2+ (50% of cells infected with selected virus)
San Carlos virus; 10^-13 grams 2X
  CPE with 100 TCID50 doses of San Carlos virus: 2+ (50% of cells infected with selected virus)
San Carlos virus; 10^-14 grams 2X
  CPE with 100 TCID50 doses of San Carlos virus: 3+ (75% of cells infected with selected virus)
San Carlos virus; picograms, 10^-10 to 10^-12 per ml of medium
  inhibition of CPE produced by San Carlos virus: slight but consistent inhibition
[1]; by day 150, 1 PPB in drinking water, GM rats
  new born rats, all appeared healthy: 31
[1]; by day 150, 1 PPB, GM rats, control group did not start breeding
  breeding of experimental group: began to breed
[1]; [3]
  Ill animals: 3
  Well animals: 23
[1]; day 58, 1 PPB in drinking water, GM rats, 26 at start
  Total number of rats: 26
[1]; [4]
  Ill animals: 3
  Well animals: 23
[1]; day 66, 1 PPB in drinking water, GM rats, 26 at start
  Total number of rats: 26
[1]; [5]
  Ill animals: 2
  Well animals: 24
[1]; day 73, 1 PPB in drinking water, GM rats, 26 at start
  Total number of rats: 26
[1]; [6]
  Dead animals: 1
  Ill animals: 0
  Well animals: 25
[1]; day 80, 1 PPB in drinking water, GM rats, 26 at start
  Total number of rats: 25
[1]; day 150, 1 PPB in drinking water, GM rats
  Well animals: 53
[1]; day 150, 1 PPB in drinking water, GM rats, includes 31 new born
  Total number of rats: 56
[1]; day 150, 1 PPB in drinking water, GM rats, only a trace of secretion
  Ill animals: 3
[1]; day 150, 1 PPB, GM rats
  symptoms of the three rats listed as ill: only a trace of secretion
[1]; [7]
  state of colony: the colony has continued to thrive
  total number of rats in colony: about 400
[2]; 1 PPM, sacrificed after 30 days, all controls positive
  non-infected female rats negative for PVM titers: one
[2]; 47 offsprings tested, treated groups and controls exposed to vapors
  offspring with detectable titers for PVM: not one
[2]; 51 rats purchased, drinking water
  effect on PVM: appeared to have had an effect on this virus so as to depress its passage to other animals
[2]; 100 parts per billion
  Mycoplasma infected rats that failed to show titers for PVM: two
[2]; males sacrificed at 14 days, all treated groups, all three controls positive
  treated male rats with titers for PVM: 5
[2]; one part per million
  Mycoplasma infected rats that failed to show titers for PVM: two
